Measured values taken from ChEMBL document CHEMBL5465560, “Selectivity Literature for EUbOPEN Chemogenomic Library” (2024).
Each block holds one compound with its values, some of them ahead of it.

Legend:
[1] = molecular target: Serine/threonine-protein kinase mTOR (Homo sapiens, UniProt P42345); experiment: Selectivity interaction (Kinase panel (antibody-dependent TR-FRET assay, phosphorylation of 4EBP-1 catalyzed by recombinant mTOR)) EUB0000877a MTOR
[2] = molecular target: T1, Calcium/calmodulin-dependent protein kinase type IV (Homo sapiens) (UniProt Q16566); experiment: Selectivity interaction (KinomeScan (DiscoverX)) EUB0000607a CAMK4; conditions: at 10 µM
T1 sequence (whole entry): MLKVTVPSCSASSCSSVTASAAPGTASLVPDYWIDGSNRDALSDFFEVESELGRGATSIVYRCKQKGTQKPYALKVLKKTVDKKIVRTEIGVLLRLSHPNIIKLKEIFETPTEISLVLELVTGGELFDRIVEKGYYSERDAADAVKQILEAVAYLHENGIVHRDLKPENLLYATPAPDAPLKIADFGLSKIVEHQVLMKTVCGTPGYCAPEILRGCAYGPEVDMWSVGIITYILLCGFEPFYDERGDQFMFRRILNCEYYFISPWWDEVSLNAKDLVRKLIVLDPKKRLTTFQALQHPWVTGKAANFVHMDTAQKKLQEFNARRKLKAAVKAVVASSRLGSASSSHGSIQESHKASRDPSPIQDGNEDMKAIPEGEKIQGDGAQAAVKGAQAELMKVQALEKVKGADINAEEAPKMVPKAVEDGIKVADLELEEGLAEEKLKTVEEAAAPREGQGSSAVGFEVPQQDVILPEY

[3] = molecular target: T2, Muscarinic acetylcholine receptor M1 (Homo sapiens) (UniProt P11229); experiment: Selectivity interaction (Panel of kinases, GPCRs, ion channels and transporters (enzymatic assay)) EUB0000266bCl CHRM1
T2 sequence (whole entry): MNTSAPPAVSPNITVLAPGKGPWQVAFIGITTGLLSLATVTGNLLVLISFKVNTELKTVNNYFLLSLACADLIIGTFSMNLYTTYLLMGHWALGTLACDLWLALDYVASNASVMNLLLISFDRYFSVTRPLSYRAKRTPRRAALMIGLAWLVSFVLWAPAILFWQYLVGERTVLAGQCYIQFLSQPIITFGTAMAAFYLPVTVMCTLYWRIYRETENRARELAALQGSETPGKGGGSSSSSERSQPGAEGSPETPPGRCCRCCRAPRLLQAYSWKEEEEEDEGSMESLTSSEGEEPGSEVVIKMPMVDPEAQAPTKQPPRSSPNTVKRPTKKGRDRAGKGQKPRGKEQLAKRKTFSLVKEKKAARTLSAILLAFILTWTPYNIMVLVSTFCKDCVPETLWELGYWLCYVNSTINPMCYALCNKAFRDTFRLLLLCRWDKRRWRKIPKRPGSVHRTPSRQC

[4] = molecular target: T3, Dual specificity mitogen-activated protein kinase kinase 3 (Homo sapiens) (UniProt P46734); experiment: Selectivity interaction (ActivX KiNativ screen (kinase selectivity in THP-1 cell lysates)) EUB0000639a MAP2K3; assay type: subcellular; conditions: lysate, at 1 µM
T3 sequence (whole entry): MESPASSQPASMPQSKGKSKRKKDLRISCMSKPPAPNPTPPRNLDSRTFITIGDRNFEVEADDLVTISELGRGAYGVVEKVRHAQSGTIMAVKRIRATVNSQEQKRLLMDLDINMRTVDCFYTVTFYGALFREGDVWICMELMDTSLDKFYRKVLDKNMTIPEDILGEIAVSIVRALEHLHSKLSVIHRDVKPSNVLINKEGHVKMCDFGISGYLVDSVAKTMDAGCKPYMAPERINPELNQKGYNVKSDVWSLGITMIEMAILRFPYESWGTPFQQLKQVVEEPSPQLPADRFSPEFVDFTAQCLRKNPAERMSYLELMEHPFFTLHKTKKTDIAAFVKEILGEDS

[5] = molecular target: Ephrin type-A receptor 5 (Homo sapiens) (UniProt P54756); experiment: Selectivity interaction (ProQinase) EUB0000171b EPHA5
Chain of Ephrin type-A receptor 5 (Homo sapiens) (P54756 whole entry): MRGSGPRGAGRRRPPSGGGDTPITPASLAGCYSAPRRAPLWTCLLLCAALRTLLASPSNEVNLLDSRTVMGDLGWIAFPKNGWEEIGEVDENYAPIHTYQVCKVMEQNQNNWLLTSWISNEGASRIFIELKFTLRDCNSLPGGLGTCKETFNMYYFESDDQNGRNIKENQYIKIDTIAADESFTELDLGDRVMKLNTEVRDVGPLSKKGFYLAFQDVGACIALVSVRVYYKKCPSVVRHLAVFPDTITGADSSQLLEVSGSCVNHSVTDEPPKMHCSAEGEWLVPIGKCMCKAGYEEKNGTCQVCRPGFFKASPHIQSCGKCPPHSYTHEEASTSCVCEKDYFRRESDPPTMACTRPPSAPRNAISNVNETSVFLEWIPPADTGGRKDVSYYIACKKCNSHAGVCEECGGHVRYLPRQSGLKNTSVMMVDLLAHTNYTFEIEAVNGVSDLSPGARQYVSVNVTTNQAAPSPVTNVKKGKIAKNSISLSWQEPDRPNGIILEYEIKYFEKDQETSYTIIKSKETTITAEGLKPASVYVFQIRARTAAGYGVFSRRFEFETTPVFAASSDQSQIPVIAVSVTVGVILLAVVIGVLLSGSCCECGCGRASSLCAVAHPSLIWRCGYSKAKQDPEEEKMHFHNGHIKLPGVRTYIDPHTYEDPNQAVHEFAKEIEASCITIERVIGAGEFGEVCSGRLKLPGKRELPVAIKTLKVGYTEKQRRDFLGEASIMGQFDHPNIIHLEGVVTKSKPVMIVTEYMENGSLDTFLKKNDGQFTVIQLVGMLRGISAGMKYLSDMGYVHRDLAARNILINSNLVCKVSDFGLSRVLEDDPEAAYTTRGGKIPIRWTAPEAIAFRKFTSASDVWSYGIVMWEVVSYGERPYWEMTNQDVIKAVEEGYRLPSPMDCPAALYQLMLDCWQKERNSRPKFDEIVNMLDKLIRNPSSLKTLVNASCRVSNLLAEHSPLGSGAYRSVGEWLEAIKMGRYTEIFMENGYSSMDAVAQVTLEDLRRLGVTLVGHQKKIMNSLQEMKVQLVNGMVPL

[6] = molecular target: High affinity nerve growth factor receptor (Homo sapiens, UniProt P04629); experiment: Selectivity interaction (KinomeScan (DiscoverX)) EUB0000655a NTRK1; conditions: at 10 µM
Chain of High affinity nerve growth factor receptor (P04629 33-796 limits assumed): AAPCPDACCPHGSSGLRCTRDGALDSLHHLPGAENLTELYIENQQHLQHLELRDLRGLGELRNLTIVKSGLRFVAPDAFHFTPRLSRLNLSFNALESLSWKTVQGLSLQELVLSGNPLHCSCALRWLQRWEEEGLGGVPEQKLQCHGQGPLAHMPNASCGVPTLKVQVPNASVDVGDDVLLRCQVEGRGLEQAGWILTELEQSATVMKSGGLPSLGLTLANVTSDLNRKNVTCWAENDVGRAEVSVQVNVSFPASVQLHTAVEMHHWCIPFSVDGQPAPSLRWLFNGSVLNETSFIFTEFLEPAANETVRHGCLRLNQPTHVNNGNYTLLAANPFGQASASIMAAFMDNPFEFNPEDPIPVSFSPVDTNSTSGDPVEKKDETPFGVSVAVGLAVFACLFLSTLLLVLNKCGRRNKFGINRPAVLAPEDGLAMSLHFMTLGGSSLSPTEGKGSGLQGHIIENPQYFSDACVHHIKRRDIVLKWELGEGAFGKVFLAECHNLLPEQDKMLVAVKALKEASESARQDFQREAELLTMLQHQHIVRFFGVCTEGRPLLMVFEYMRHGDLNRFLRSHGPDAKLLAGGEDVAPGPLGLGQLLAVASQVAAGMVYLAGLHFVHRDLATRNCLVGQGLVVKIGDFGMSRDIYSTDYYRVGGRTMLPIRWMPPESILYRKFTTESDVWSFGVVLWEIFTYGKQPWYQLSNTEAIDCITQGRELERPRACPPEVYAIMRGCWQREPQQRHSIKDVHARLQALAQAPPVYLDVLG

[7] = molecular target: Glycogen synthase kinase-3 beta (Homo sapiens, UniProt P49841)
[8] = molecular target: Mitogen-activated protein kinase kinase kinase 4 (Homo sapiens) (UniProt Q9Y6R4); experiment: Selectivity interaction (KinomeScan (DiscoverX)) EUB0000045b MAP3K4
Chain of Mitogen-activated protein kinase kinase kinase 4 (Homo sapiens) (Q9Y6R4 whole entry): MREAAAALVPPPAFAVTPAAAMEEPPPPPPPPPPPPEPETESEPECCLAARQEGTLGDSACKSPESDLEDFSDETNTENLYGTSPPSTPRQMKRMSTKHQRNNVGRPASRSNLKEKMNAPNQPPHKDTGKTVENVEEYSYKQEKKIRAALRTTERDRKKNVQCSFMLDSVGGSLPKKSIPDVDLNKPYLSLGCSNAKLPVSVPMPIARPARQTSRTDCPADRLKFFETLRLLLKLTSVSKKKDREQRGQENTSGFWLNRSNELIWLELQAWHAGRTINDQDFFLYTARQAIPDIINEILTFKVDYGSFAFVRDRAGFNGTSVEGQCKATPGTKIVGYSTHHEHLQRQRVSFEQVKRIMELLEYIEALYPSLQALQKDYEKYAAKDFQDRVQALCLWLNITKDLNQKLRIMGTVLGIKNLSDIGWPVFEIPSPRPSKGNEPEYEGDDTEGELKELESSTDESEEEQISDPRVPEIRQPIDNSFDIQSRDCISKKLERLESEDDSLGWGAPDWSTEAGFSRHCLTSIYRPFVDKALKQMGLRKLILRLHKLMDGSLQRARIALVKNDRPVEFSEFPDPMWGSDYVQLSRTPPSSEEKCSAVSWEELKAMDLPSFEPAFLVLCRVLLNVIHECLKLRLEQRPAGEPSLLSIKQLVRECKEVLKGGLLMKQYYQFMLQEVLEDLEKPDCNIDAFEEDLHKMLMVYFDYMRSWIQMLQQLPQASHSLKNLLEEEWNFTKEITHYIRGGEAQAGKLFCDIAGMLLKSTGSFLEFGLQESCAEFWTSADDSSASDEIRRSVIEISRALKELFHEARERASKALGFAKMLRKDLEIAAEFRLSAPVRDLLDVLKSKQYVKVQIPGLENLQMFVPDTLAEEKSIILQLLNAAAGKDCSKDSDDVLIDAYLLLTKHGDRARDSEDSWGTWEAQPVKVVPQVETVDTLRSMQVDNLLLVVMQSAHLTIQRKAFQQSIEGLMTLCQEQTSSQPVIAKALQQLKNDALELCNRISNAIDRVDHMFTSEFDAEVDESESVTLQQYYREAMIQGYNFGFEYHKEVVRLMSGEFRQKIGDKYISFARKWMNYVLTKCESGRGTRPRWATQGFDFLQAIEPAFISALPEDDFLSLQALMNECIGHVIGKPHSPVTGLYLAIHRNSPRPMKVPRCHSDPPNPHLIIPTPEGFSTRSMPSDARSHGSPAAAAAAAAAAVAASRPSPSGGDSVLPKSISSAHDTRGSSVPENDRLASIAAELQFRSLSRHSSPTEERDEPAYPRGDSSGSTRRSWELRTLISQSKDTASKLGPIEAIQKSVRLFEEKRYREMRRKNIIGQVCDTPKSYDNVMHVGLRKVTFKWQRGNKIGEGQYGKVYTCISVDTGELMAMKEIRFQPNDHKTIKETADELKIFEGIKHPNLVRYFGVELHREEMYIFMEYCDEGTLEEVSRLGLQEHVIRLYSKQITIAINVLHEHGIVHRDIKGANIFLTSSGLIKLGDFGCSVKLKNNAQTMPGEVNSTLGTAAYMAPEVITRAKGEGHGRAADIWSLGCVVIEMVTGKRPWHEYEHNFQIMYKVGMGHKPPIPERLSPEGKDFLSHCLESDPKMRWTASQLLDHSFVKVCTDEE

[9] = molecular target: T4, Tyrosine-protein kinase JAK3 (Homo sapiens) (UniProt P52333); experiment: Selectivity interaction (Kinase panel (Carna Biosciences)) EUB0001542aTs JAK3; conditions: at 1 µM
T4 sequence (whole entry): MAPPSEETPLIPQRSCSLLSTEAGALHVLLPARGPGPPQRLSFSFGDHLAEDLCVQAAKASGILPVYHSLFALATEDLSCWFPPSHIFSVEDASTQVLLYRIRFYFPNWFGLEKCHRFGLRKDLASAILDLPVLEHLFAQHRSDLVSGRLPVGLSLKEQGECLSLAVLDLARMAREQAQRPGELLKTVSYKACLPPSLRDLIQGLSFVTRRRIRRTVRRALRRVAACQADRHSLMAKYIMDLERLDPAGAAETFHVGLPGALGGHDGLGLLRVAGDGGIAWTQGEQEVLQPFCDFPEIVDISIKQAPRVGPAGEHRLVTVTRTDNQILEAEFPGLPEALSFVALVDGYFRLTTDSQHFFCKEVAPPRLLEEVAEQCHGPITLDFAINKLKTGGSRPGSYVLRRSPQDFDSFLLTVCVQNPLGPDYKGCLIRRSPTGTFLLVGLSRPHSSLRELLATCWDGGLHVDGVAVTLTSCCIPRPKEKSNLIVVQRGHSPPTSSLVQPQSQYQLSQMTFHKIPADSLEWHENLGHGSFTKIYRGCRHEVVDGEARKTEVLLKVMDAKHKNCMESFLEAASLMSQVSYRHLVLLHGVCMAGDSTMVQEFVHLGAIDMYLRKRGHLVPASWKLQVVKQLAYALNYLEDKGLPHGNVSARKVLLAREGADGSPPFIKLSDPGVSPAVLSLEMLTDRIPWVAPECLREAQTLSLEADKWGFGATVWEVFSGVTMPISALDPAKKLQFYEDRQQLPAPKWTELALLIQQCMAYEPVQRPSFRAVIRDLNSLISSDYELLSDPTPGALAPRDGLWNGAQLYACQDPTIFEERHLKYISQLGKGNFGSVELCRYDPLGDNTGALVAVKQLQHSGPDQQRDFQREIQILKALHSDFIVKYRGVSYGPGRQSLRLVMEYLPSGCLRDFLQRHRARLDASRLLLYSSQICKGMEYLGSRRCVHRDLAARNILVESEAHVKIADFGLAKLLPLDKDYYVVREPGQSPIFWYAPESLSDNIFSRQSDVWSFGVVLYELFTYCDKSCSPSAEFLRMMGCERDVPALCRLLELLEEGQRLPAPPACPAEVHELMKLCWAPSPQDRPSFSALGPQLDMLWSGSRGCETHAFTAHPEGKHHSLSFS

[10] = molecular target: Serine/threonine-protein kinase MRCK beta (Homo sapiens) (UniProt Q9Y5S2); conditions: at 10 µM
Chain of Serine/threonine-protein kinase MRCK beta (Homo sapiens) (Q9Y5S2 whole entry): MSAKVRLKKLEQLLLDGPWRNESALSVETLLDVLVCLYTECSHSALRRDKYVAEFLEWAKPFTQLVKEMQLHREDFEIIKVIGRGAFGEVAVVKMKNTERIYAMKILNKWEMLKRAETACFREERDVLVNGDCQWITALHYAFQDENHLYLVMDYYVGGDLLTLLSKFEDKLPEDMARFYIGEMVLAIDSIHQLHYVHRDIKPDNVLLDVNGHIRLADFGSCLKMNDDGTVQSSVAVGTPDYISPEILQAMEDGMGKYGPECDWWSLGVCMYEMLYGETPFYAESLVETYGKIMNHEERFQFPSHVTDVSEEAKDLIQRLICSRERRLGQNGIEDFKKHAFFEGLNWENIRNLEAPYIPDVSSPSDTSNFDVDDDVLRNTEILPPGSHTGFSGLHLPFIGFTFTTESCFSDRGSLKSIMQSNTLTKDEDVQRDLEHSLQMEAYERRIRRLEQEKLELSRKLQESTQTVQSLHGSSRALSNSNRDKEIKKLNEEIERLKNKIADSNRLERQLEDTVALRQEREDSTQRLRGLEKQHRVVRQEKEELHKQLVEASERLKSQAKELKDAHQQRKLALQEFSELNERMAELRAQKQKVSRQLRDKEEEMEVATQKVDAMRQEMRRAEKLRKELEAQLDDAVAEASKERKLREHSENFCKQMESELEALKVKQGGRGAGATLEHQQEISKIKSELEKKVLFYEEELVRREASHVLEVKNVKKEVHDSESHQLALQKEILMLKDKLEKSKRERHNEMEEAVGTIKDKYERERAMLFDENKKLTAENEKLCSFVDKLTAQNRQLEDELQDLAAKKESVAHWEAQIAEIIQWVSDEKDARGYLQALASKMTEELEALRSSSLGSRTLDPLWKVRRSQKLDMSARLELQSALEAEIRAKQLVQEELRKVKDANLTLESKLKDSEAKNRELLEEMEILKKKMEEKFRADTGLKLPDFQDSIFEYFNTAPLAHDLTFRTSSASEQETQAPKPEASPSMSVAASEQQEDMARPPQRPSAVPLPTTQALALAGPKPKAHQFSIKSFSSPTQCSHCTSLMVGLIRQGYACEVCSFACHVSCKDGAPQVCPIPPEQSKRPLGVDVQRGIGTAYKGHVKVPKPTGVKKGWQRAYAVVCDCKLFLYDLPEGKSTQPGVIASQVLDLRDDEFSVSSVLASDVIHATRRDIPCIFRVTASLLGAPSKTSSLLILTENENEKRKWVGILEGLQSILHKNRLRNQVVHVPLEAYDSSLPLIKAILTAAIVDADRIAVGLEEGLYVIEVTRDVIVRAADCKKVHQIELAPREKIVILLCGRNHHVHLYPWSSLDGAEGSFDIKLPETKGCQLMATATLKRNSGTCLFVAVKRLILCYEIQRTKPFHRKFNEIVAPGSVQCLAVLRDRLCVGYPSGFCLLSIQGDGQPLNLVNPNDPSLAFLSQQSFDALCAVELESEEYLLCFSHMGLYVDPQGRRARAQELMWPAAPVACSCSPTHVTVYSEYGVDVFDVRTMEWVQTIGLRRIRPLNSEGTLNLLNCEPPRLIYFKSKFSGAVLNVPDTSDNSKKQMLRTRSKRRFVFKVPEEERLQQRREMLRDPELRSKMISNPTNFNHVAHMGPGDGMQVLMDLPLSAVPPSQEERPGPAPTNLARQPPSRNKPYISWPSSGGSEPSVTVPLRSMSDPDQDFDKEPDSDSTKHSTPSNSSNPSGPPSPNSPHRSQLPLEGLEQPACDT

IC50 [1]: > 9.1 µM
SMILES: CCC(=O)N1CC[C@H](Nc2ncnc3c2CN(c2cnc(OC)c(C(F)(F)F)c2)CC3)C1 [LENIOLISIB]

SMILES: CNC(=O)Nc1ccc(-c2nc(N3CC4CCC(C3)O4)c3cnn(C4CCC5(CC4)OCCO5)c3n2)cc1
% of control [2]: 100%

pXC50 [3]: < 4.8 M
SMILES: CCn1c(-c2nc3cc(C(=O)N4CCCC(N)C4)ccc3n2C)cc2ccccc21 (configuration not stated)

% of inhibition [4]: -152%
SMILES: CC[C@@H]1[C@H](F)C(=O)N[C@@H]1COc1nccc2cc(C(N)=O)c(OC)cc12 [ZIMLOVISERTIB]

% of control ([5]; at 1 µM): 94%
% of control ([5]; at 5 µM): 87%
SMILES: C=CC(=O)Nc1cccc(C(=O)Nc2ccc(Nc3cc(-c4[nH]c(SC)nc4C)ccn3)cc2)c1

SMILES: CN(C)CCOc1ccc(-c2nc(-c3ccncc3)c(-c3ccc4c(c3)CC/C4=N\O)[nH]2)cc1
% of control [6]: 90%

IC50 [7]: > 10 µM
SMILES: CCc1cccc(CC)c1NC(=O)c1nn(C)c2c1CCc1cnc(Nc3ccc(C(=O)NC4CCN(C)CC4)cc3OC(F)(F)F)nc1-2

SMILES: C=CC(=O)Nc1cc(-n2c(=O)ccc3cnc4ccc(-c5ccc(NS(C)(=O)=O)cc5)cc4c32)ccc1C
% of control ([8]; at 1 µM): 89%
% of control ([8]; at 10 µM): 100%

% of inhibition [9]: 92%
SMILES: Cn1cc(Nc2nccc(N3CC4CCC(C3)N4C(=O)[C@@H]3CC3(F)F)n2)cn1

SMILES: Cc1cc([C@@H](C)Nc2ccccc2C(=O)O)c2nc(N3CCOCC3)cc(=O)n2c1 [AZD-6482]
% of control [10]: 100%
